Laboratory results published in patent EP0411503B1, “Process for identifying and synthesizing binding sites of interacting proteins” (priority 1989, dated 1999).
Where no end group is shown, it is not given here.

Biological target: peptide HIV-1 gp120
Assay: Affinity HPLC of CD4 peptide on immobilized HIV-1 gp120 peptide
Assay type: binding
From the text: The existence of an interaction ability among complementary peptides was verified by affinity HPLC (G. Fassina and I. M. Chaiken, Advances in Chromatogr. 27:250, 1987).
The peptide HIV-1 gp120 was immobilized on a solid support (Eupergit^R C 30n, 800 µmoles/g load capability by controlled density) according to the conditions reported in literature (G. Fassina et al., J. Chromatogr. 376:87, 1986) and an HPLC glass column (80∗ 6.6 mm ID) was loaded with the peptide derivatized support to prepare an affinity column. The total amount of immobilized peptide in the column is 260 µg, as checked from the amino acid analysis of the support. Small amounts (1-10 µg) of CD4 peptide were eluted isochrathically on the column equilibrated by a flow rate of 1.0 ml/min with 0.1 M NH4Ac, pH 5.7.
The eluted solution was analysed by monitoring the optic absorbance.
The extension of the delay on column, which indicates the interaction between the peptides, was correlated to the dissociation constant Km/p of the binding according to the equation: 1/(V-Vo ) = Km/p /MT +[P]T /MT [formula] where V is the elution volume of the eluted peptide, Vo is void volume of the column, MT is the total immobilized peptide, [P]T is the eluted peptide, and Km/p is the dissociation constant of the binding. […]

| Substance | Kd (immobilized HIV-1 gp120 peptide, 0.1 M NH4Ac, pH 5.7, extrapolation at concentration zero of peptide, read-out: dissociation constant) [µM] | binding in competitive binding assay (1 mM of HIV-1 gp120 added to the buffer) |
| --- | --- | --- |
| GPSKLNDRADS [peptide CD4, NH2-GPSKLNDRADSCOOH] | 80 | – |
| NH2-APPISGOIRSS-COOH [HIV-1 gp120] | – | completely inhibited |
